US20250059233A1, “USE OF THERAPEUTIC PEPTIDES” (Viage Therapeutics Inc., priority 2021, published 2025)
Structures can show the parent of a compound that is named as a salt. No end group written: not given here.

Assays:
healthy subjects = conditions: human, in vivo
Description: A Phase 1a/1b, randomized, placebo-controlled, crossover study with the peptide [sequence] (SEQ ID NO:2) in healthy subjects was performed. The study population included men and women in good general health.
A single ascending dose (SAD) group included four cohorts receiving 60 mg/day (cohorts SAD1 and SAD2). 180 mg/day (cohort SAD3), or 540 mg/day (cohort SAD4) of the peptide or placebo. A multiple ascending dose (MAD) group included three cohorts receiving 60 mg/day (cohort MAD1), 180 mg/day (cohort MAD2), or 540 mg/day (cohort MAD3) of the peptide or placebo for seven days. All doses were administered orally.

AVPR1A, AVPR1B, AVPR2 = test: Tail suspension test (TST) with vasopressin receptor inhibitors; assay type: in vivo
Male ICR mice = test: Step-down inhibitory avoidance test, scopolamine-induced memory impairment; assay type: in vivo; conditions: 1.5 mg/kg oral gavage once a day for 21 days; scopolamine 2 mg/kg i.p.; vs model group, P<0.01
Description: Male ICR mice, aged 4-5 weeks were used in the study.
The study was performed in step-down inhibitory avoidance equipment with dimensions 12 cm×2 cm×18 cm in each chamber (Model: YLS-3T, Shandong Yiyan Technology Co., LTD., China). The bottom of each chamber was covered with a copper grid that can be electrified. A rubber platform was placed in the right corner of each chamber.
Male ICR mice in each group were treated by oral gavage once a day for 21 days with the vehicle, Donepezil Hydrochloride (1.5 mg/kg), and the peptide […] (SEQ ID NO:2) (0.3, 10 mg/kg), respectively. Two hours after the last administration, scopolamine hydrobromide (2 mg/kg) was injected intraperitoneally to induce memory impairment.
Fifty male ICR mice were divided into 5 groups according to the average of body weight, 10 mice in each group, as detailed in Table 1. […]
Evaluation period: 24 h after the training period, the mice were placed on the rubber platform and evaluated for 5 minutes. The latency of the first jump from the platform to the copper grid was observed and counted, and the latency in seconds was analyzed to evaluate memory improvement.
All results were given as mean±SEM, and the data differences between groups were analyzed by t-test for the paired comparisons using the GraphPad Prism 8 statistical package (GraphPad Software Inc., San Diego, CA, USA). […]

[1] = inhibitor given with the peptide

Molecule: LSSTQAQQSY
- vital signs, electrocardiography (ECG) data, and physical examinations (healthy subjects): normal

Molecule: Cc1nc2c([nH]1)-c1ccccc1N(C(=O)c1ccc(NC(=O)c3ccccc3-c3ccccc3)cc1)CC2 [conivaptan]
- blocking of LSSTQAQQSY activity in a tail suspension test (AVPR1A, AVPR1B, AVPR2; [1]): blocks
- blocking of LSSTQAQQSY activity in a tail suspension test (AVPR1A, AVPR1B, AVPR2; low doses of the inhibitor): blocks

Molecule: Cc1ccccc1C(=O)Nc1ccc(C(=O)N2CCCC(O)c3cc(Cl)ccc32)c(C)c1 (centres unmarked) [tolvaptan]
- blocking of LSSTQAQQSY activity in a tail suspension test (AVPR1A, AVPR1B, AVPR2; [1]): does not block

Molecule: COc1cc2c(cc1OC)C(=O)C(CC1CCN(Cc3ccccc3)CC1)C2 (centres unmarked) [Donepezil Hydrochloride]
- latency of the first jump from the platform (step-down) (Male ICR mice): significantly longer than the model group
